Experimental data reported in patent US4138423A, “N-dithio carbamoyl oximes” (priority 1976, dated 1979).
≈ marks a conversion by molar mass, not a printed value.

What was measured:
[1] = peroral toxicity to mammals (rat); conditions: in vivo, po, peroral, Table I, read-out: A.O. Rat. LD50
Description: (§1) Certain of these compositions were also evaluated to determine their peroral toxicity to mammals. The animal selected for this experiment was the rat. The test results obtained are expressed in terms of the number of milligrams of compositions per kilogram of weight of the animal required to achieve a mortality rate of 50 percent (LD50).

Mexican bean beetle = assay: Mexican Bean Beetle Leaf Spray Test; conditions: Epilachna varivestis, read-out: Beetle LD50
Description: (§2) The test procedures were as follows:
The closed dishes were labeled and held at a temperature of 80±5° F. for three days. Although the larvae could easily consume the leaf within 24 to 48 hours, no more food was added.

southern armyworm = assay: Southern Armyworm Leaf Spray Test; conditions: Spodoptera eridania, read-out: Armyworm LD50
Description: The thus-prepared stock suspension contained 0.5 percent by weight of compound. The test concentrations in parts per million by weight employed in the tests described hereinbelow were obtained by appropriate dilutions of the stock suspension with water. The test procedures were as follows:
Larvae of the southern armyworm (Prodenia eridania, (Cram.)), reared on Tendergreen bean plants at a temperature of 80±5° F. and a relative humidity of 50±5 percent, constituted the test insects.
Potted Tendergreen bean plants of standard height and age were placed on a revolving turntable and sprayed with 100-110 milliliters of test compound formulation by use of a DeVilbiss spray gun set at 10 psig air pressure. This application, which lasted 25 seconds, was sufficient to wet plants to run-off. As a control, 100-110 milliliters of a water-acetone-emulsifier solution containing no test compound were also sprayed on infested plants. When dry, the paired leaves were separated and each one was placed in a 9 centimeter Petri dish lined with moistened filter paper. Five randomly selected larvae were introduced into each dish and the dishes were closed. The closed dishes were labeled and held at 80-85° F. for three days. Although the larvae could easily consume the whole leaf within twenty-four hours, no more food was added. Larvae which were unable to move the length of the body, even upon stimulation by prodding, were considered dead. Percent mortality was recorded for various concentration levels.
(§3) The test procedures described above were employed in these experiments in order to determine the LD50 (number of parts per million of active ingredients required to achieve fifty percent mortality of the insects tested) for each of the compositions tested.

house flies = assay: Fly Bait Test; conditions: Musca domestica, read-out: Fly LD50
Description: The test concentrations in parts per million by weight employed in the tests described hereinbelow were obtained by appropriate dilutions of the stock suspension with water. The test procedures were as follows:
Four to six day old adult house flies (Musca domestica, L.) reared according to the specifications of the Chemical Specialities Manufacturing Association (Blue Book, McNair-Dorland Co., N.Y. 1954; pages 243-244, 261) under controlled conditions of 80±5° F. and 50±5 percent relative humidity, were the test insects. The flies were immobilized by anesthetizing with carbon dioxide and twenty five immobilized individuals,males and females, were transferred to a cage consisting of a standard food strainer about five inches in diameter which was inverted over a wrapping-paper-covered surface. […] Ten milliliters of the test formulation were added to a souffle cup containing a one-inch square of an absorbent cotton pad. This bait cup was introduced and centered on the blotting paper under the food strainer prior to admitting the anesthetized flies. The caged flies were allowed to feed on the bait for twenty four hours, at a temperature of 80±5° F. and the relative humidity of 50±5 percent.
as §3

two-spotted mite = assay: Mite Foliage Spray Test; conditions: Tetranychus urticae, foliar, read-out: Mite LD50
Description: as §2
Adults and nymphal stages of the two-spotted mite (Tetranychus urticae Koch), reared on Tendergreen bean plants at 80±5° percent relative humidity, were the test organisms. Infested leaves from a stock culture were placed on the primary leaves of two bean plants six to eight inches in height, growing in a two- and-a-half inch clay pot. 150-200 mites, a sufficient number for testing, transferred from the excised leaves to the fresh plants in a period of twenty four hours. Following the twenty four hour transfer period, the excised leaves were removed from the infested plants. […] The sprayed plants were held at 80±5 percent relative humidity for six days, after which a mortality count of motile forms was made. […] Any individual which was capable of locomotion upon prodding was considered living.

bean aphid = assay: whole plant or invertebrate; conditions: foliar, read-out: Aphid LD50
rat = assay: peroral toxicity to mammals (rat); conditions: in vivo, po
Description: as §1

[2] = system: cotton, tomatoes, beans and corn; assay: phytotoxicity to crops; conditions: compared with N-methyl carbamate compounds

CSC(C)=NOC(=O)N(C)SSC(C)(C)C [Example I, 1-Methylthioacetaldehyde O-[N-methyl-N-(2-methyl-2-propanethiosulfenyl)carbamoyl]oxime]
LD50 [1]: 143 mg/kg | LC50 (Mexican bean beetle): 40 µg/mL (≈ 142 µM) | LC50 (southern armyworm): 6 µg/mL (≈ 21.2 µM) | LC50 (house flies): 4 µg/mL (≈ 14.2 µM)

CSC(C)=NOC(=O)N(C)SSC(C)(C)C [Example II (Table II)]
LC50 (two-spotted mite): > 500 µg/mL | LC50 (bean aphid): 1.3 µg/mL (≈ 4.6 µM)

CSC(C)=NOC(=O)N(C)SSC1CCCCC1 [Example II, 1-Methylthioacetaldehyde O-[N-methyl-N-(cyclohexanethiosulfenyl)carbamoyl]oxime]
LD50 [1]: 101 mg/kg

CC(=NOC(=O)N(C)SSC(C)(C)C)SC(C)C [Example III (Table II)]
LC50 (two-spotted mite): 125 µg/mL (≈ 403 µM) | LC50 (bean aphid): 9 µg/mL (≈ 29 µM)

CSC(C)=NOC(=O)N(C)SSc1ccc(Cl)cc1 [Example III, 1-Methylthioacetaldehyde O-[N-methyl-N-(4-chlorophenylthiosulfenyl)carbamoyl]oxime]
LD50 [1]: 160 mg/kg

CC(=NOC(=O)N(C)SSC(C)C)SCCC#N [IV]
LD50 [1]: 14.1 mg/kg

CSC(C)=NOC(=O)N(C)SSc1ccccc1 [IX, 1-Methylthioacetaldehyde O-[N-methyl-N-(phenylthiosulfenyl)carbamoyl]oxime]
LD50 [1]: 143 mg/kg

CNC(=O)ON=C(C)SC [Methomyl, reference compound]
Rat LD50 (rat): 48 mg/kg | LC50 (Mexican bean beetle): 70 µg/mL (≈ 432 µM) | LC50 (southern armyworm): 11 µg/mL (≈ 67.8 µM) | LC50 (two-spotted mite): > 500 µg/mL | LC50 (house flies): 4 µg/mL (≈ 24.7 µM) | phytotoxicity to important economic crops [2]: highly susceptible to phytotoxic injury

CSC(C)=NOC(=O)N(C)SSc1ccc(C)cc1 [X, 1-Methylthioacetaldehyde O-[N-methyl-N-(4-methylphenylthiosulfenyl)carbamoyl]oxime]
LD50 [1]: 63.5 mg/kg

CC(=NOC(=O)N(C)SSC(C)(C)C)SCCC#N [XIII]
LD50 [1]: 10 mg/kg

CC(=NOC(=O)N(C)SSC(C)(C)C)SC(C)C [XII]
LD50 [1]: 30.8 mg/kg | LC50 (Mexican bean beetle): 31 µg/mL (≈ 99.8 µM) | LC50 (southern armyworm): 35 µg/mL (≈ 113 µM) | LC50 (house flies): 42 µg/mL (≈ 135 µM)

CSC(C)(C)C=NOC(=O)N(C)SSc1ccc(Cl)cc1 [XIV]
LD50 [1]: 2 mg/kg

CSC(C)=NOC(=O)N(C)SSc1ccc(C(C)(C)C)cc1 [XI]
LD50 [1]: 180 mg/kg

CSC(C)=NOC(=O)N(C)SSC(C)C [XV]
LD50 [1]: 113 mg/kg
